# Several values for one entry are separate records, joined by “and”; a condition that tells them apart may be missing. Identical values can stand only once.
# Key:
# PDO14 = experiment: cell viability in patient-derived CRC organoids PDO14; format: cell-based, human
# Method: (§1) For in vitro treatment studies, organoids were mechanically dissociated and digested using TrypLE supplemented with 100 µg ml^−1 DNaseI and 10.5 µM Y-27632 dihydrochloride (Invitrogen) at 37 °C. A total of 1,000–2,000 single cells were plated per well in white 96-well plates (Greiner) in culture medium containing 10% GFR Matrigel or Cultrex BME. The treatment with doxycycline (5 µg ml^−1), pharmacological inhibitors or corresponding volumes of DMSO was started 24 h after plating. Doxycycline was obtained from Sigma-Aldrich. […] Cell viability was measured by means of CellTiter-Glo 3D or CellTiter-Glo 2.0 reagent (Promega) according to the manufacturers’ instructions and the Infinite M Plex reader (Tecan, i-control version 3.9.1 software). Results were normalized to vehicle (DMSO) or to shNC. For cell-doubling assays, the cell number was quantified at the corresponding time points using Guava EasyCyte flow cytometer (Luminex, CytoSoft v5.2 software).
# LS 174T = experiment: cell viability in human CRC cell line LS 174T; format: cell-based; details: for LS 174T Cell viability (%): 4 d
# Method: The cells were cultured at 37 °C and 7% CO2 with RPMI (KAP^2D cells) or DMEM (other cell lines), supplemented with 10% FBS and penicillin–streptomycin. […] No commonly misidentified cell lines were used. Mycoplasma contamination was excluded by a PCR-based analysis.
# PDO11 = experiment: cell viability in patient-derived CRC organoids PDO11; format: cell-based, human
# Method: as §1
# HCT 116 = experiment: cell viability in human CRC cell line HCT 116; format: cell-based; details: for HCT 116 Cell viability (%): 4 d
# Method: (§2) To generate KAP^2D cells, KAP organoids were isolated from Matrigel, fragmented by mechanical dissociation and plated without any extracellular matrix on common cell culture dishes. Phoenix-Eco packaging cells (CRL-3214), HCT-15 (CCL-225), HCT 116 (CCL-247), COLO 205 (CCL-222), LS 174T (CL-188), RKO (CRL-2577) and HT-29 (HTB-38) were obtained from the American Type Culture Collection. The cells were cultured at 37 °C and 7% CO2 with RPMI (KAP^2D cells) or DMEM (other cell lines), supplemented with 10% FBS and penicillin–streptomycin. KAP^2D cells were authenticated using PCR (Kras locus and Trp53 locus). Phoenix-Eco packaging cells and HCT-15, HCT 116, COLO 205, LS 174T, RKO and HT-29 cells were authenticated by the provider using short tandem repeat profiling. No commonly misidentified cell lines were used. Mycoplasma contamination was excluded by a PCR-based analysis.
# as §1
# HT-29 = experiment: cell viability in human CRC cell line HT-29; format: cell-based; details: ED Fig. 9h, replicates
# Method: as §2, §1
structure (smiles),measurement,setting,value
"O=C1c2ccc(Nc3ccc(F)cc3F)cc2CCc2ccc(OC[C@H](O)CO)cc21 [SKL, skepinone-L, reference compound]",viability at 0.5 µM,"PDO14; Homo sapiens, 96 h, read-out: Cell viability (%), PDO14, 0.5 µM, 4 d",104%
same,viability at 1 µM,"PDO14; Homo sapiens, 96 h, read-out: Cell viability (%), PDO14, 1 µM, 4 days",100%
same,Cell viability (%),"PDO14; PDO14, 0.5 µM, 4 d, 0.5 µM",101.08% and 101.64%
same,Cell viability (%),"PDO14; PDO14, 1 µM, 4 days, 1 µM",109.63% and 109.64%
same,LS 174T Cell viability (%),LS 174T; 0.0137 µM,99.40% and 93.05% and 101.28% and 92.22%
same,LS 174T Cell viability (%),LS 174T; 0.0412 µM,92.09% and 86.77% and 91.37% and 88.68% and 85.53%
same,LS 174T Cell viability (%),LS 174T; 0.1235 µM,82.00% and 78.88% and 87.71% and 84.96%
same,LS 174T Cell viability (%),LS 174T; 0.3704 µM,80.28% and 77.65% and 86.62% and 87.42% and 86.17%
same,LS 174T Cell viability (%),LS 174T; 1.1111 µM,91.92% and 90.66% and 93.51% and 91.38% and 95.21%
same,LS 174T Cell viability (%),LS 174T; 3.3333 µM,99.97% and 97.60% and 100.77% and 96.22% and 98.37%
same,LS 174T Cell viability (%),LS 174T; 10.0000 µM,102.64% and 93.49% and 96.83% and 90.78% and 93.45%
same,viability at 0.0137 µM,"LS 174T; Homo sapiens, LS174T, 96 h, read-out: LS 174T Cell viability (%), 0.0137 µM, 4 d",100%
same,viability at 0.0412 µM,"LS 174T; Homo sapiens, LS174T, 96 h, read-out: LS 174T Cell viability (%), 0.0412 µM, 4 d",94.4%
same,viability at 0.1235 µM,"LS 174T; Homo sapiens, LS174T, 96 h, read-out: LS 174T Cell viability (%), 0.1235 µM, 4 d",92.9%
same,viability at 0.3704 µM,"LS 174T; Homo sapiens, LS174T, 96 h, read-out: LS 174T Cell viability (%), 0.3704 µM, 4 d",89%
same,viability at 1.1111 µM,"LS 174T; Homo sapiens, LS174T, 96 h, read-out: LS 174T Cell viability (%), 1.1111 µM, 4 d",102%
same,viability at 3.3333 µM,"LS 174T; Homo sapiens, LS174T, 96 h, read-out: LS 174T Cell viability (%), 3.3333 µM, 4 d",107%
same,viability at 10 µM,"LS 174T; Homo sapiens, LS174T, 96 h, read-out: LS 174T Cell viability (%), 10.0000 µM, 4 d",98.7%
same,viability at 0.5 µM,"PDO11; Homo sapiens, 96 h, read-out: Cell viability (%), PDO11, 0.5 µM, 4 d",105%
same,Cell viability (%),"PDO11; PDO11, 0.5 µM, 4 d, 0.5 µM",108.79% and 91.94%
same,Cell viability (%),"PDO11; PDO11, 1 µM, 4 days, 1 µM",107.20% and 119.15% and 97.40%
same,HCT 116 Cell viability (%),HCT 116; 0.0137 µM,82.53% and 93.66% and 88.98% and 84.63%
same,HCT 116 Cell viability (%),HCT 116; 0.0412 µM,87.30% and 84.90% and 78.78% and 77.22% and 83.29%
same,HCT 116 Cell viability (%),HCT 116; 0.1235 µM,92.74% and 88.80% and 81.62% and 82.67% and 87.37%
same,HCT 116 Cell viability (%),HCT 116; 0.3704 µM,94.27% and 95.66% and 82.63% and 82.17%
same,HCT 116 Cell viability (%),HCT 116; 1.1111 µM,100.75% and 99.43% and 96.05% and 80.80% and 79.61% and 91.28%
same,HCT 116 Cell viability (%),HCT 116; 3.3333 µM,95.32% and 96.31% and 81.21% and 79.37% and 87.78%
same,HCT 116 Cell viability (%),HCT 116; 10.0000 µM,90.67% and 87.54% and 88.22% and 75.98% and 77.27% and 105.12%
same,viability at 0.0137 µM,"HCT 116; Homo sapiens, HCT-116, 96 h, read-out: HCT 116 Cell viability (%), 0.0137 µM, 4 d",85.5%
same,viability at 0.0412 µM,"HCT 116; Homo sapiens, HCT-116, 96 h, read-out: HCT 116 Cell viability (%), 0.0412 µM, 4 d",90.7%
same,viability at 0.1235 µM,"HCT 116; Homo sapiens, HCT-116, 96 h, read-out: HCT 116 Cell viability (%), 0.1235 µM, 4 d",93.8%
same,viability at 0.3704 µM,"HCT 116; Homo sapiens, HCT-116, 96 h, read-out: HCT 116 Cell viability (%), 0.3704 µM, 4 d",94.8%
same,viability at 3.3333 µM,"HCT 116; Homo sapiens, HCT-116, 96 h, read-out: HCT 116 Cell viability (%), 3.3333 µM, 4 d",96.3%
same,HT-29 Cell viability (%),"HT-29; 0.0137 µM, Repetition",103.68% and 103.86%
same,HT-29 Cell viability (%),"HT-29; 0.0137 µM, first experiment",94.50% and 93.43%
same,HT-29 Cell viability (%),"HT-29; 0.0412 µM, Repetition",99.67% and 99.85%
same,HT-29 Cell viability (%),"HT-29; 0.0412 µM, first experiment",92.23% and 89.57%
same,HT-29 Cell viability (%),"HT-29; 0.1235 µM, Repetition",103.93% and 105.17%
same,HT-29 Cell viability (%),"HT-29; 0.1235 µM, first experiment",89.62% and 88.59%
same,HT-29 Cell viability (%),"HT-29; 0.3704 µM, Repetition",102.88% and 105.26%
same,HT-29 Cell viability (%),"HT-29; 0.3704 µM, first experiment",92.54% and 90.50%
same,HT-29 Cell viability (%),"HT-29; 1.1111 µM, Repetition",104.46% and 106.93%
same,HT-29 Cell viability (%),"HT-29; 1.1111 µM, first experiment",97.34% and 97.79%
